The target of the assay is T1, human 11β-HSD1 (Homo sapiens, UniProt P28845).
T1 construct: truncated (24-287aa) human 11β-HSD1 enzyme; made in house; host or cells: E. coli (lysate, not purified)
T1 sequence (P28845 24-287): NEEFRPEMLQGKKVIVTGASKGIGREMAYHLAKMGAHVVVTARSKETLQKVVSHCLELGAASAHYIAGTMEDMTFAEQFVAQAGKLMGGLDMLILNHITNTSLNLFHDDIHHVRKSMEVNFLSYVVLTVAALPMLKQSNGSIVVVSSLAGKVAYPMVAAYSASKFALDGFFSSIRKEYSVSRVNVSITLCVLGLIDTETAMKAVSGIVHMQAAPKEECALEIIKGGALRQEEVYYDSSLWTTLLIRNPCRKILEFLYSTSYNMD
The assay can be described thus: Human 11β-HSD1 enzymatic SPA assay. It is filed as biochemical. The note with it: truncated (24-287aa) human 11β-HSD1, apparent Ki from IC50 by Cheng-Prusoff. The method, then: The ability of test compounds to inhibit human 11β-HSD1 enzymatic activity in vitro was evaluated in a Scintillation Proximity Assay (SPA). Tritiated-cortisone substrate, NADPH cofactor and titrated compound were incubated with truncated (24-287aa) human 11β-HSD1 enzyme at room temperature to allow the conversion to cortisol to occur. The reaction was stopped by adding a non-specific 11β-HSD inhibitor, glycyrrhetinic acid. The tritiated cortisol was captured by a mixture of an anti-cortisol monoclonal antibody and SPA beads coated with anti-mouse antibodies. The reaction plate was shaken at room temperature and the radiolabel bound to SPA beads was then measured on a scintillation counter. The 11β-HSD1 assay was carried out in 96-well microtiter plates in a total volume of […]. To start the assay, 188 μL of master mix which contained 75 nM ^3H-cortisone, 100 nM cortisone and 181 μM NADPH was added to the wells. In order to drive the reaction in the 11β-reductase direction, 1 mM glucose-6-phosphate (G-6-P) and 1 U/mL G-6-P dehydrogenase were also added as a NADPH generating system. Solid compound was dissolved in dimethyl sulfoxide to make a 10 mM stock followed by a subsequent 10-fold serial dilution with dimethyl sulfoxide. Each compound solution in dimethyl sulfoxide was 10-fold diluted in Tris/EDTA buffer (pH 7.4). 22 μL of titrated compound were then added in duplicate to the substrate. Reactions were initiated by the addition of 10 μL of 0.1 mg/mL E. coli lysates overexpressing 11β-HSD1 enzyme. After shaking and incubating plates for 30 minutes at room temperature, reactions were stopped by adding 10 μL of 1 mM glycyrrhetinic acid. The product, tritiated cortisol, was captured by adding 10 μL of 1 μM monoclonal mouse anti-cortisol antibodies and 50 μL of SPA beads coated with anti-mouse antibodies. After shaking for 30 minutes, plates were read in a Microbeta scintillation counter. Percent inhibition was calculated based on the background and the maximal signal. Wells that contained substrate without compound or enzyme were used as the background, while the wells that contained substrate and enzyme without any compound were considered as maximal signal. Percent of inhibition of each compound was calculated relative to the maximal signal and IC50 curves were generated. Assuming competitive inhibition the Cheng-Prusoff equation was used to calculate apparent Ki values from the IC50 values. This assay was applied to 11β-HSD2 as well, whereby 6 nM tritiated cortisol and 250 uM NAD^+ were used as substrate and cofactor, respectively.
In the case of `CC(C)(Oc1ccc(F)cc1Cl)C(=NC#N)NC1C2CC3CC1CC(O)(C3)C2` (centres unmarked) [Example 1, (1E)-2-(2-Chloro-4-fluorophenoxy)-Y-cyano-N-[(E)-5-hydroxy-2-adamantyl]-2-methylpropanimidamide], the Ki fell in the range of 10 to 100 nM.

`Cc1ccccc1CC(=NC#N)NC1C2CC3CC1CC(O)(C3)C2` (centres unmarked) [Example 2, (1E)-N-Cyano-N-[(E)-5-hydroxy-2-adamantyl]-2-(2-methylphenyl)ethanimidamide]: the Ki was over 1000 nM.

In the case of `N#CN=C(NC1C2CC3CC1CC(O)(C3)C2)C1(c2ccc(Cl)cc2)CCC1` (centres unmarked) [Example 3, 1-(4-Chlorophenyl)-N′-cyano-N-[(E)-5-hydroxy-2-adamantyl]cyclobutanecarboximidamide], the Ki was over 1000 nM.

Turning to `N#CN=C(Cc1ccc(F)cc1F)NC1C2CC3CC1CC(O)(C3)C2` (centres unmarked) [Example 4, (1E)-N′-Cyano-2-(2,4-difluorophenyl)-N-[(E)-5-hydroxy-2-adamantyl]ethanimidamide], the Ki was over 1000 nM.

For `N#C/N=C(\Cc1ccccc1F)N[C@@H]1[C@@H]2C[C@@H]3C[C@H]1C[C@@](O)(C3)C2` [Example 5, (1E)-N′-Cyano-2-(2-fluorophenyl)-N-[(E)-5-hydroxy-2-adamantyl]ethanimidamide], the Ki is over 1000 nM.

On to `N#CN=C(Cc1cccnc1Cl)NC1C2CC3CC1CC(O)(C3)C2` (centres unmarked) [Example 6, (1E)-2-(2-Chloropyridin-3-yl)-N′-cyano-N-[(E)-5-hydroxy-2-adamantyl]ethanimidamide], for which the Ki was over 1000 nM.

`N#CN=C(COc1ccc(Cl)cc1)NC1C2CC3CC1CC(O)(C3)C2` (centres unmarked) [Example 7, (1E)-2-(4-Chlorophenoxy)-N′-cyano-N-[(E)-5-hydroxy-2-adamantyl]ethanimidamide]: the Ki is over 1000 nM.

For the compound `CC(C)(Oc1ccc(Cl)cc1)C(=NC#N)NC1C2CC3CC1CC(O)(C3)C2` (centres unmarked) [Example 8, (1E)-2-(4-Chlorophenoxy)-N′-cyano-N-[(E)-5-hydroxy-2-adamantyl]-2-methylpropanimidamide], the Ki is at most 10 nM.

As for `CC(C)(Oc1ccc(Cl)cc1)C(=S)NC1C2CC3CC1CC(S(C)(=O)=O)(C3)C2` (centres unmarked) [Example 9, 2-(4-Chlorophenoxy)-2-methyl-N-[(E)-5-(methylsulfonyl)-2-adamantyl]propanethioamide], the Ki was in the range of 10 to 100 nM.

On to `CC(C)(Oc1ccc(Cl)cc1)C(=NC#N)NC1C2CC3CC1CC(S(N)(=O)=O)(C3)C2` (centres unmarked) [Example 10, (1E)-N-[(E)-5-(Aminosulfonyl)-2-adamantyl]-2-(4-chlorophenoxy)-N′-cyano-2-methylpropanimidamide], for which the Ki lay in the range of 100 to 1000 nM.

Take `COC(=O)C12CC3CC(C1)C(NC(=NC#N)C(C)(C)Oc1ccc(Cl)cc1)C(C3)C2` (centres unmarked) [Example 11, Methyl(E)-4-{[(1E)-2-(4-chlorophenoxy)-N-cyano-2-methylpropanimidoyl]amino}adamantane-1-carboxylate]: the Ki lay in the range of 100 to 1000 nM.

On to `CC(C)(Oc1ccc(F)cc1Cl)C(=S)N[C@@H]1[C@@H]2C[C@@H]3C[C@H]1C[C@@](S(C)(=O)=O)(C3)C2` [Example 12, 2-(2-Chloro-4-fluorophenoxy)-2-methyl-N-[(E)-5-(methylsulfonyl)-2-adamantyl]propanethioamide], for which the Ki lay in the range of 10 to 100 nM.

`CON=C(NC1C2CC3CC1CC(S(C)(=O)=O)(C3)C2)C(C)(C)Oc1ccc(Cl)cc1` (centres unmarked) [Example 13, (1E)-2-(4-Chlorophenoxy)-N-methoxy-2-methyl-N-[(E)-5-(methylsulfonyl)-2-adamantyl]propanimidamide]: the Ki lay within 100 to 1000 nM.

With `CC(C)(Oc1ccc(Cl)cc1)C(=NC#N)NC1C2CC3CC1CC(C(N)=O)(C3)C2` (centres unmarked) [Example 14, (E)-4-{[(1E)-2-(4-Chlorophenoxy)-N-cyano-2-methylpropanimidoyl]amino}adamantane-1-carboxamide], the Ki was at most 10 nM.

`N#CN=C(NC1C2CC3CC1CC(O)(C3)C2)C1(Oc2cccc(Cl)c2)CCC1` (centres unmarked) [Example 15, 1-(3-Chlorophenoxy)-N′-cyano-N-[(E)-5-hydroxy-2-adamantyl]cyclobutane carboximidamide]: the Ki was in the range of 100 to 1000 nM.

For `COC(=O)C12CC3CC(C1)C(NC(=S)C(C)(C)OCc1ccc(C(F)(F)F)cc1)C(C3)C2` (centres unmarked) [Example 16, Methyl(E)-4-[(2-methyl-2-{[4-(trifluoromethyl)benzyl]oxy}propanethioyl)amino]adamantane-1-carboxylate], the Ki lay in the range of 100 to 1000 nM.

For the compound `COC(=O)C12CC3CC(C1)C(NC(=NC#N)C(C)(C)OCc1ccc(C(F)(F)F)cc1)C(C3)C2` (centres unmarked) [Example 17, Methyl(E)-4-[((1E)-N-cyano-2-methyl-2-{[4-(trifluoromethyl)benzyl]oxy}propanimidoyl)amino]adamantane-1-carboxylate], the Ki was 100 to 1000 nM.

As to `CC(C)(Oc1ccc(F)cc1Cl)/C(=N\C#N)NC1C2CC3CC1CC(S(C)(=O)=O)(C3)C2` (centres unmarked) [Example 18, (1E)-2-(2-Chloro-4-fluorophenoxy)-N-cyano-2-methyl-N-[(E)-5-(methylsulfonyl)-2-adamantyl]propanimidamide], the Ki is 10 to 100 nM.

For the compound `CC(C)(Oc1ccc(Cl)cc1)C(=NC#N)NC1C2CC3CC1CC(S(C)(=O)=O)(C3)C2` (centres unmarked) [Example 19, (1E)-2-(4-Chlorophenoxy)-N-cyano-2-methyl-N-[(E)-5-(methylsulfonyl)-2-adamantyl]propanimidamide], the Ki was in the range of 10 to 100 nM.

For `COC(=O)C12CC3CC(C1)C(NC(=S)C(C)(C)N1CCN(c4ccc(C(F)(F)F)cn4)CC1)C(C3)C2` (centres unmarked) [Example 21, Methyl(E)-4-[(2-methyl-2-{4-[5-(trifluoromethyl)pyridin-2-yl]piperazin-1-yl}propanethioyl)amino]adamantane-1-carboxylate], the Ki was in the range of 10 to 100 nM.

As for `CC(C)(Cc1ccc(Cl)cc1)C(=N)NC1C2CC3CC1CC(O)(C3)C2` (centres unmarked) [Example 22, 3-(4-Chlorophenyl)-N-[(E)-5-hydroxy-2-adamantyl]-2,2-dimethylpropanimidamide], the Ki was over 1000 nM.

As for `CC(C)(Cc1ccc(Cl)cc1)C(=NC#N)NC1C2CC3CC1CC(O)(C3)C2` (centres unmarked) [Example 23, (1E)-3-(4-Chlorophenyl)-N′-cyano-N-[(E)-5-hydroxy-2-adamantyl]-2,2-dimethyl propanimidamide], the Ki lay in the range of 100 to 1000 nM.

For `CC(C)(OCc1ccc(C(F)(F)F)cc1)C(=NC#N)NC1C2CC3CC1CC(C(=O)O)(C3)C2` (centres unmarked) [Example 24, (E)-4-[((1E)-N-Cyano-2-methyl-2-{[4-(trifluoromethyl)benzyl]oxy}propanimidoyl)amino]adamantane-1-carboxylic acid], the Ki lay within 10 to 100 nM.

As to `CC(C)(OCc1ccc(C(F)(F)F)cc1)/C(=N\C#N)N[C@@H]1[C@@H]2C[C@@H]3C[C@H]1C[C@@](C(N)=O)(C3)C2` [Example 25, (E)-4-[((1E)-N-Cyano-2-methyl-2-{[4-(trifluoromethyl)benzyl]oxy}propanimidoyl)amino]adamantane-1-carboxamide], the Ki lay in the range of 10 to 100 nM.

Turning to `CC(C)(OCc1ccc(C(F)(F)F)cc1)C(=NC#N)NC1C2CC3CC1CC(C#N)(C3)C2` (centres unmarked) [Example 27, (1E)-N-Cyano-N-[(E)-5-cyano-2-adamantyl]-2-methyl-2-{[4-(trifluoromethyl)benzyl]oxy}propanimidamide], the Ki is at most 10 nM.

For the compound `COC(=O)C12CC3CC(C1)C(NC(=NC#N)C(C)(C)OCc1ccc(OC)cc1)C(C3)C2` (centres unmarked) [Example 28, Methyl(E)-4-({(1E)-N-cyano-2-[(4-methoxybenzyl)oxy]-2-methylpropanimidoyl}amino)adamantane-1-carboxylate], the Ki lay in the range of 100 to 1000 nM.

In the case of `COC(=O)C12CC3CC(C1)C(NC(=NC#N)C(C)(C)N1CCN(c4ccc(C(F)(F)F)cn4)CC1)C(C3)C2` (centres unmarked) [Example 29, Methyl(E)-4-[((1E)-N-cyano-2-methyl-2-{4-[5-(trifluoromethyl)pyridin-2-yl]piperazin-1-yl}propanimidoyl)amino]adamantane-1-carboxylate], the Ki was in the range of 100 to 1000 nM.

For `CC(C)(/C(=N\C#N)N[C@@H]1[C@@H]2C[C@@H]3C[C@H]1C[C@@](C(=O)O)(C3)C2)N1CCN(c2ccc(C(F)(F)F)cn2)CC1` [Example 30, (E)-4-[((1E)-N-Cyano-2-methyl-2-{4-[5-(trifluoromethyl)pyridin-2-yl]piperazin-1-yl}propanimidoyl)amino]adamantane-1-carboxylic acid], the Ki was over 1000 nM.

For the compound `CC(C)(C(=NC#N)NC1C2CC3CC1CC(C(N)=O)(C3)C2)N1CCN(c2ccc(C(F)(F)F)cn2)CC1` (centres unmarked) [Example 31, (E)-4-[((1E)-N-Cyano-2-methyl-2-{4-[5-(trifluoromethyl)pyridin-2-yl]piperazin-1-yl}propanimidoyl)amino]adamantane-1-carboxamide], the Ki is 100 to 1000 nM.

The values are drawn from patent US8507493B2 (AbbVie Inc., priority 2009, dated 2013).
